Laboratory results from patent US8952002B2, “Aminoheteroaryl compounds and preparation method and use thereof” (Shanghai Allist Pharmaceuticals, Inc., priority 2012, dated 2015).

Assays:
[1] = biological target: receptor tyrosine kinase c-Met (c-Met kinase domain recombination protein) (Homo sapiens (Human), UniProt P08581); test: Enzyme linked immunosorbent assay (ELISA) of c-Met kinase activity; type: biochemical; conditions: for IC50: c-Met enzyme, ELISA, read-out: IC50 (nM) mean ± SD
Procedure: The evaluation of the inhibition of the compound of the present invention on the activity of c-Met enzyme in molecular level may be assayed by conventional methods, one preferable evaluation method of which is enzyme-linked immunosorbent assay (ELISA). By measuring the inhibition ratio of the compounds against the activity of receptor tyrosine kinase protein c-Met enzyme, the median inhibitory concentration IC50 is calculated based on the inhibition ratios for various concentrations using the four-parameter method. The inhibition ratio for a sample (%)=(1−(OD value of a compound−OD value of the control well without enzyme)/(OD value of the negative control well−OD value of the control well without enzyme))×100%
(1) The enzyme reaction substrate Poly(Glu, Tyr) 4:1 was diluted to 20 μg/mL, 1254/well coated enzyme label plate with potassium ion-free PBS (10 mM sodium phosphate buffer, 150 mM NaCl, pH7.2-7.4), which was placed at 37° C. to allow to react for 12-16 h. The liquid in the wells was discarded. The plate was washed with 200 μL/well of T-PBS (potassium ion-free PBS containing 0.1% Tween-20) for three times (each for 5 min). The enzyme label plate was placed into a drying oven at 37° C. to dry for 1-2 h.
(2) To each well was added 50 µL of ATP solution diluted with reaction buffer (50 mM HEPES pH 7.4, 50 mM MgCl2, 0.5 mM MnCl2, 0.2 mM Na3VO4, 1 mM DTT), and to each well was added 1 μL of the compounds. When adding the test compounds, 6 concentration gradients were set for each compound (the starting concentrations and dilution times were determined according to the results of preliminary screening so as to ensure that the maximum inhibition ratio was about 80% and the minimum inhibition ratio was about 20%, and more than two concentration points were in the vicinity of 50% inhibition ratio), and then 504 of c-Met kinase domain recombination protein diluted with reaction buffer was added to initiate the reaction. Two ATP-free control wells were needed for each of the experiments. The reaction was placed on a shaking table at 37° C. (100 rpm) for 1 h. The liquid in the wells was discarded and the plate was washed with T-PBS for three times.
(3) The antibody PY99 was added at 1004/well (the antibody was diluted with T-PBS containing BSA (5 mg/mL) in 1:500). The reaction was performed on a shaking table at 37° C. for 0.5 h. The liquid in the wells was discarded and the plate was washed with T-PBS for three times.
(4) The horseradish peroxidase-labeled goat anti-mouse secondary antibody was added at 100 μL/well (the antibody was diluted with T-PBS containing BSA (5 mg/mL) in 1:2000), The reaction was performed on a shaking table at 37° C. for 0.5 h. The liquid in the wells was discarded and the plate was washed with T-PBS for three times.
(5) 2 mg/ml of OPD colour developing solution (diluted with 0.1M citric acid-sodium citrate buffer (pH=5.4) containing 0.03% H2O2) was added at 1004/well, and the reaction was performed at 25° C. for 1-10 min under protection from light.
(6) 2M H2SO4 was added at 50 μL/well to terminate the reaction, and the values were read by a microplate reader VERSAmax with adjustable wavelength, wherein the wavelength was 490 nm. Through calculation, the inhibitory IC50 values of the compounds of Example 2, 12 and 13 against the activity of receptor tyrosine kinase c-Met enzyme were obtained as: […]

[2] = system: human lung cancer cells (H1975); test: SRB proliferation assay, human lung cancer cells (H1975); type: cell-based; conditions: NCI-H1975, H1975, 72 hr, read-out: IC50 against H1975 cells
Source text: (§1) The pharmacodynamic action of the compound of the present invention in terms of inhibiting the proliferation of cancer cells may be assayed by conventional methods, one preferable evaluation method of which is Sulforhodamine B (SRB) protein staining method, which calculates the inhibition ratio of a drug against the proliferation of cancer cells through measuring the change in optical absorption value generated after the drug has influenced the cancer cells. Inhibition ratio (%)=(OD control−OD inhibitor−OD blank)/(OD control−OD blank)×100%
(§2) The median inhibitory concentration (IC50) value is obtained by the software GraphPad Prism 5 through calculation.
(§3) The human breast cancer cells in the logarithmic phase were inoculated to 96-well culture plates (180 μl/well) at a density of about 5500/well. The well for each concentration was triplicated. Solvent control wells of corresponding concentrations and apoptosis-free wells were also established. After adherent growth for 24 hr, the compounds of the present invention were added at 20 μl/well, and the cells were cultured for 72 hr under the conditions of 10% Hyclone fetal calf serum, 37° C., 5% CO2. […]
According to the experimental method of Test Example 1, the IC50 value of the compound of the present invention against H1975 cells was calculated as: […]

[3] = system: human breast cancer cells (MDA-MB-231); test: SRB proliferation assay, human breast cancer cells (MDA-MB-231); type: cell-based; conditions: MDA-MB-231, 72 hr, read-out: IC50 against MDA-MB-231 cells
Source text: as §1
OD control: the OD value of the well of normally grown cells without the action of a drug.
OD inhibitor: the OD value of the well of cells with the action of added compounds to be screened.
OD blank: the OD value of the well of parallel control without seeding cells.
as §2
The human breast cancer cells in the logarithmic phase were inoculated to 96-well culture plates (180 μl/well) at a density of about 5500/well. The well for each concentration was triplicated. Solvent control wells of corresponding concentrations and apoptosis-free wells were also established. […]

[4] = system: human colon cancer cells (HT-29); test: SRB proliferation assay, human colon cancer cells (HT-29); type: cell-based; conditions: HT-29, 72 hr, read-out: IC50 against HT-29 cells
Source text: as §1, §2, §3
According to the experimental method of Test Example 1, the IC50 value of the compound of the present invention against HT-29 cells was calculated as: […]

c-Met receptor = c-Met receptor (Homo sapiens (Human), UniProt P08581); test: Western blot test of c-Met phosphorylation in EGF-stimulated H1975 cells; type: cell-based; conditions: EGF induction, 1 μM and 5 μM, 6 hr
Procedure: The human lung cancer cells (H1975) in the logarithmic phase were inoculated to 6-well culture plates at a density of about 4×10^5/well. The cells were adherently grown for 24 hr. Four wells were selected, wherein two wells were added with the compound of Example 2 respectively (1 μM/well and 5 μM/well). The other two wells were not added with drugs. The cells were cultured for 6 hr under the conditions of 10% Hyclone fetal calf serum, 37° C., 5% CO2. EGF was added to the above two wells and one of the drug-free well to stimulate for 15 min. After the cells were washed with cold PBS, sample loading buffer (2×SDS Lysis Buffer+1M DTT+H2O) was added to lyse the cells. The lysate of the cells was heated for 10 min at 100° C., centrifuged for 5 min at 12000 g, and the supernatant was took out. The supernatant was subjected to SDS-PAGE electrophoretic analysis. At 25 mA constant current, after wetly transferred for 2 h, the proteins were transferred to PVDF (polyvinylidine difluoride) membrance. The PVDF membrance was took out, incubated with the corresponding primary antibody (pMet) at 4° C. overnight. […] After washing with TBST for 3 times, images were developed with ECL luminescence kit, and were mounted. […]

Chain of receptor tyrosine kinase c-Met (c-Met kinase domain recombination protein) (P08581 1078-1345): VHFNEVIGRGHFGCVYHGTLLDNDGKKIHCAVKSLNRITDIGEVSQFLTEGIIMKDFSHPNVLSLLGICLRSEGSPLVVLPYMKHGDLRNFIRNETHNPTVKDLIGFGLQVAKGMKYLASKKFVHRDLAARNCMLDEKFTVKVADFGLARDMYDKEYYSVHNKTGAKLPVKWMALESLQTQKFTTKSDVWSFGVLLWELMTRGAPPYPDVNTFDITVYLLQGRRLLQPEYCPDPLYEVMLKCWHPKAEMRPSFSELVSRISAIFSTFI
Chain of c-Met receptor (P08581 25-1390): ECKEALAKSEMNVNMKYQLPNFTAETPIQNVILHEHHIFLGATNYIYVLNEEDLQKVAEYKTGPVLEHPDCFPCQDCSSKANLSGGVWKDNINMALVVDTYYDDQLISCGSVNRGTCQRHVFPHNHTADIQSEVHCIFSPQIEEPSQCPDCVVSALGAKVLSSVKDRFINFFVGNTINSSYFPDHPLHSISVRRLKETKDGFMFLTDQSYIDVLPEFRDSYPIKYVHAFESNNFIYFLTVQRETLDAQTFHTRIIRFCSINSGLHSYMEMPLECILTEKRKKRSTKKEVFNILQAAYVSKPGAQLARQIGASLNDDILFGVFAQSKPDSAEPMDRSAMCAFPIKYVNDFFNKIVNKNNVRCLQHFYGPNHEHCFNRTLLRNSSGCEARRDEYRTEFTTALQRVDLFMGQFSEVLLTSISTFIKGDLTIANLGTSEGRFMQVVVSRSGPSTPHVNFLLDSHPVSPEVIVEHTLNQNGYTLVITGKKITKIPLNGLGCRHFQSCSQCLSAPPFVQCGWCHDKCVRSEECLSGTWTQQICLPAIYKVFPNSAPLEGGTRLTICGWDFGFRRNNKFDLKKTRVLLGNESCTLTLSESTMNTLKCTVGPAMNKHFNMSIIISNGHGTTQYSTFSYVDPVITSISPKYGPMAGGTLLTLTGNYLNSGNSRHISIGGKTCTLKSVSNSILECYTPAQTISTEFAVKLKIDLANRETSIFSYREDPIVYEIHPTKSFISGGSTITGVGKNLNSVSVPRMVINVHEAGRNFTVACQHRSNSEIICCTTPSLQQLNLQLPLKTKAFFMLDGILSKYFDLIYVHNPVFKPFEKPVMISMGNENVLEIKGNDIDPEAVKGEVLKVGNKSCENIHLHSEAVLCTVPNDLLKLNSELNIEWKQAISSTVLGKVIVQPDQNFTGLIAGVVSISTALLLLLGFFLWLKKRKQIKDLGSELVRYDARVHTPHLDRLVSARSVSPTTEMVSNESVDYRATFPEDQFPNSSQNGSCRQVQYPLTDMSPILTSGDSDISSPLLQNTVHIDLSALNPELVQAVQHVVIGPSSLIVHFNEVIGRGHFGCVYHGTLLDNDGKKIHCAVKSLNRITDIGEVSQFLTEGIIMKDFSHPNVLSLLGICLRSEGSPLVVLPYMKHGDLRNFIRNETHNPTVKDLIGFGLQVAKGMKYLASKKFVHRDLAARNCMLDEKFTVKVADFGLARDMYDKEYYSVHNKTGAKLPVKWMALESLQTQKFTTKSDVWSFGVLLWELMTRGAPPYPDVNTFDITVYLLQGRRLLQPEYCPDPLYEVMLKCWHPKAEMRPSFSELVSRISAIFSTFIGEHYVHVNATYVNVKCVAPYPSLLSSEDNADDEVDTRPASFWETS

Row | Average inhibition ratio (%) ([1]; 0.8 nM) | Average inhibition ratio (%) ([1]; 2 nM) | Average inhibition ratio (%) ([1]; 7 nM) | Average inhibition ratio (%) ([1]; 22 nM) | Average inhibition ratio (%) ([1]; 66 nM) | Average inhibition ratio (%) ([1]; 200 nM) | IC50 [1] [nM] | IC50 [2] [µM] | IC50 [3] [µM] | IC50 [4] [µM] | inhibition of the phosphorylation of c-Met receptor (c-Met receptor) | Compound
1 | 8.4 | 26.9 | 51.0 | 69.9 | 76.8 | 78.0 | 6.7 ± 2.3 | 11.7 | 9.53 | 5.26 | effectively inhibit | CC(Oc1cc(-c2cn(C3CCNCC3)nn2)cnc1N)c1c(Cl)ccc(F)c1Cl (stereo not shown) [Example 2, 3-(1-(2,6-dichloro-3-fluorophenyl)ethoxy)-5-(1-(piperidin-4-yl)-1H-1,2,3-triazol-4-yl)-2-aminopyridine]
2 | 7.9 | 18.2 | 39.8 | 61.7 | 76.3 | 77.5 | 11.7 ± 2.3 | – | – | – | – | C[C@H](Oc1cc(-c2cn(C3CCNCC3)nn2)cnc1N)c1c(Cl)ccc(F)c1Cl [Example 12]
3 | 31.1 | 62.2 | 67.7 | 79.7 | 88.0 | 88.2 | 1.7 ± 0.4 | – | – | – | – | C[C@@H](Oc1cc(-c2cn(C3CCNCC3)nn2)cnc1N)c1c(Cl)ccc(F)c1Cl [Example 13, (R)-3-(1-(2,6-dichloro-3-fluorophenyl)ethoxy)-5-(1-(piperidin-4-yl)-1H-1,2,3-triazol-4-yl)-2-aminopyridine]
